The source of these data is PMC10812941, “Selenium-Containing (Hetero)Aryl Hybrids as Potential Antileishmanial Drug Candidates: In Vitro Screening against L. amazonensis” (Biomedicines, 2024).

Where two headings read alike, the source gives them in different places. Where only a bound is given, the exact number is not on record here.

Data set [1] can be described thus: in vitro. The following applies: mouse.
Data set [2] is described as follows: in vitro. The following applies: mouse. This is another data set of the same source.
Data set [3] deals with L. amazonensis promastigotes. The data set is described as follows: Anti-promastigote assay (resazurin viability). The following applies: for IC50: 48 h; for SI (CC50 on murine peritoneal macrophages/IC50 on promastigotes): peritoneal macrophages vs promastigotes; for Selectivity Index (SI) CC50 J774 / IC50 promastigotes: J774A.1 vs promastigotes; for Selectivity Index (SI) CC50 NIH/3T3 / IC50 promastigotes: NIH/3T3 vs promastigotes. (The colour change of resazurin is a common sign of viable cells or microbes.)
Method: (§1) Parasites in the exponential growth phase were used for the in vitro anti-promastigote assay, while those in the stationary phase were used for the anti-amastigote assay. Intracellular amastigote forms were obtained by infecting murine peritoneal macrophages with promastigotes.
Cell viability was assessed using the resazurin (Sigma-Aldrich) assay. A solution of resazurin (Sigma-Aldrich, USA) at 0.2 mg·mL^−1 was added to each well, and after 4 h of incubation at 26 °C, the absorbances at 570 nm and 600 nm were acquired, and the viability calculation for all wells was performed based on the formula and instructions provided by the AlamarBlue® manufacturer’s website (Bio-Rad, Hercules, CA, USA) [41]. Cell viability was evaluated from the optical density and compared to untreated cells. […] The half-maximal inhibitory concentration (IC50) values for each compound were calculated using a nonlinear dose–response regression curve generated by Prism 5 (GraphPad Software, USA).

For data set [4], the system named is L. amazonensis intracellular amastigotes. The data set is described as follows: Anti-amastigote assay in infected murine peritoneal macrophages. The following applies: for IC50: Leishmania amazonensis, Peritoneal macrophage, in Mus musculus, 24 h, read-out: IC50 L. amazonensis Amastigotes.
Method: as §1
Plates were incubated at 37 °C with 5% CO2 for 1 h to allow adhesion, which was confirmed by microscopy. […] Supernatants were removed after treatment, and cells were washed twice with PBS, fixed with Bouin’s solution (Sigma-Aldrich, USA), and stained with Giemsa (Sigma-Aldrich, USA) diluted 1:10 in distilled water. Coverslips were dehydrated through an acetone/xylene gradient (100%, 70%, 50%, 30%, and 100% each from Sigma-Aldrich) and mounted for microscopic visualization. The total number of intracellular amastigotes was counted in 200 cells per coverslip in three replicates using an optical microscope. The half-maximal inhibitory concentration (IC50) values were calculated for each compound using a nonlinear regression curve in GraphPad Prism 5.0 software (GraphPad Software, San Diego, CA, USA).
[5] abbreviates: Leishmania amazonensis, read-out: IC50 L. amazonensis Promastigotes, 48 h, resazurin.
Setting [6] is: read-out: IC50 L. amazonensis Promastigotes, resazurin.

The IC50 is the point on the concentration scale where inhibition reaches its midpoint. Take `Cc1ccc(-c2nnc([Se]c3ccccc3)o2)cc1` [MRK-103]: the CC50 at 48 h in “in vitro [1]” and in “in vitro [2]” was > 200 µM each time. Moreover, the IC50 is 15.5 ± 1.13 µM in data set [3] (setting [5]) and > 50 µM in data set [4]. The “SI (CC50 on murine peritoneal macrophages/IC50 on promastigotes)” value in data set [3] is 12.92.

`Cc1ccn2c([Se]c3ccccc3)c(-c3ccccc3)nc2c1` [MRK-113]: the CC50 at 48 h in “in vitro [1]” is > 200 µM. Also, the CC50 at 48 h in the data set “in vitro [2]” was > 200 µM. For the same compound, in data set [3], the “Selectivity Index (SI) CC50 J774 / IC50 promastigotes” value is given as 4.88, the “Selectivity Index (SI) CC50 NIH/3T3 / IC50 promastigotes” value turned out to be 4.88 and the “SI (CC50 on murine peritoneal macrophages/IC50 on promastigotes)” value is 4.88. For the same compound, the half-maximal inhibitory concentration (IC50) in data set [3] (setting [5]) was determined as 41 ± 1.31 µM. Besides, in data set [4], the “Selectivity Index (SI) CC50 J774 / IC50 amastigotes” value is on record as 12.55, the “Selectivity Index (SI) CC50 NIH/3T3 / IC50 amastigotes” value is reported as 12.55 and the IC50 came to 15.9 ± 1.69 µM.

Turning to `Oc1ccc2ccccc2c1[Se]c1ccccc1` [MRK-102], the CC50 at 48 h in “in vitro [1]” and in “in vitro [2]” was > 200 µM each time. Further, the IC50 was 15.2 ± 1.12 µM in data set [3] (setting [5]) and > 50 µM in data set [4]. For the same compound, the “SI (CC50 on murine peritoneal macrophages/IC50 on promastigotes)” value in data set [3] is listed as 13.20.

Consider `COc1ccccc1[Se]c1c(-c2ccccc2)nc2cc(C)ccn12` [MRK-107], for which the CC50 at 48 h in “in vitro [1]” is > 200 µM. Also, the CC50 at 48 h in the data set “in vitro [2]” was > 200 µM. In data set [3], the “Selectivity Index (SI) CC50 J774 / IC50 promastigotes” value came to 7.31, the “Selectivity Index (SI) CC50 NIH/3T3 / IC50 promastigotes” value worked out at 7.31 and the “SI (CC50 on murine peritoneal macrophages/IC50 on promastigotes)” value came out at 7.31. Moreover, the IC50 in data set [3] (setting [5]) stood at 27.4 ± 1.24 µM. Further, in data set [4], the “Selectivity Index (SI) CC50 J774 / IC50 amastigotes” value stood at 10.92, the “Selectivity Index (SI) CC50 NIH/3T3 / IC50 amastigotes” value is recorded as 10.92 and the IC50 amounted to 18.3 ± 1.5 µM.

Turning to `N#C[Se]Cc1cc(=O)oc2cc(O)ccc12` [MRK-108], the CC50 at 48 h in the data set “in vitro [1]” and in “in vitro [2]” was > 200 µM throughout. For the same compound, the IC50 in data set [3] (setting [5]) is 4.23 ± 2 µM; in data set [4] it was > 50 µM. Further, the “SI (CC50 on murine peritoneal macrophages/IC50 on promastigotes)” value in data set [3] is > 47.31; in data set [3] (listed as 108) it was 47.31.

In the case of `CC(C)(C)c1cc(O)cc(C(C)(C)C)c1[Se]C#N` [MRK-105], the “Selectivity Index (SI) CC50 J774 / IC50 promastigotes” value in data set [3] was found to be 4.94. For the same compound, the IC50 in data set [3] (setting [5]) was 15.5 µM; in data set [3] (setting [6]) it was 12.2 ± 1.12 µM; in data set [4], > 50 µM. In data set [3], the “Selectivity Index (SI) CC50 NIH/3T3 / IC50 promastigotes” value is on record as 7.22. The “SI (CC50 on murine peritoneal macrophages/IC50 on promastigotes)” value in data set [3] is reported as 12.92; in data set [3] (listed as 105), 16.43.

On to `Cc1cn2c([Se]c3ccccc3)c(-c3ccccc3)nc2s1` [MRK-111], for which the CC50 at 48 h in the data set “in vitro [1]” and in “in vitro [2]” was > 200 µM throughout. In addition, the results for the half-inhibitory concentration (IC50) in data set [3] (setting [5]) and in data set [4] were 17.6 ± 1.18 µM and > 50 µM, respectively. In addition, the “SI (CC50 on murine peritoneal macrophages/IC50 on promastigotes)” value in data set [3] came to 11.40.

With `C[C@@H]1[C@H](O)[C@@H](C)/C=C/C=C/C=C/C=C/C=C/C=C/C=C/[C@H](O[C@@H]2O[C@H](C)[C@@H](O)[C@H](N)[C@@H]2O)C[C@@H]2O[C@](O)(C[C@@H](O)C[C@@H](O)[C@H](O)CC[C@@H](O)C[C@@H](O)CC(=O)O[C@H]1C)C[C@H](O)[C@H]2C(=O)O` [ANFB, amphotericin B, reference compound], the CC50 at 48 h in “in vitro [1]” (NIH/3T3 fibroblast cells) amounted to 19.3 ± 1.01 µM; in the data set “in vitro [2]” (J774A.1 macrophage cells), 27.3 ± 0.92 µM. In addition, in data set [3], the “Selectivity Index (SI) CC50 J774 / IC50 promastigotes” value stood at 2.91. Also, the IC50 amounted to 9.41 ± 1.13 µM in data set [3] (setting [5]), 9.4 ± 1.13 µM in data set [3] (setting [6]) and 0.97 ± 1.14 µM in data set [4]. In data set [3], the “Selectivity Index (SI) CC50 NIH/3T3 / IC50 promastigotes” value turned out to be 2.05. Moreover, in data set [3], the “SI (CC50 on murine peritoneal macrophages/IC50 on promastigotes)” value is recorded as 2.67. In addition, in data set [4] (J774A.1 vs intracellular amastigotes), the “Selectivity Index (SI) CC50 J774 / IC50 amastigotes” value stood at 28.19. For the same compound, the “Selectivity Index (SI) CC50 NIH/3T3 / IC50 amastigotes” value in data set [4] (NIH/3T3 vs intracellular amastigotes) was determined as 25.92.
